Test results reported in paper PMC3006138, “Fexinidazole – A New Oral Nitroimidazole Drug Candidate Entering Clinical Development for the Treatment of Sleeping Sickness” (PLoS Neglected Tropical Diseases, 2010).
Several values for one entry are separate records, joined by “and”; a condition that tells them apart may be missing. Equal entries are not always repeated. Where two headings read alike, the source gives them in different places.

Assays:
in vivo = settings: male, NMRI, mouse, po, 200 mg/kg/day
[1] = tested on: T. b. rhodesiense (STIB 900); assay: In vitro trypanocidal assay (Alamar Blue); type: cell-based, Trypanosoma brucei rhodesiense
Protocol: (§1) 10 µL of Alamar Blue was added for the final 3 h to determine viability. […] The IC50 values were calculated from the sigmoidal inhibition curves. For cytotoxicity, 4×10^4/mL L-6 rat skeletal myoblast cells were used, and incubations and assessments carried out as above.

L-6 rat myoblast cells = assay: Cytotoxicity assay; type: cell-based; settings: 72 h, read-out: IC50
Protocol: as §1

[2] = tested on: T. b. gambiense (STIB 930); assay: In vitro trypanocidal assay (Alamar Blue); type: cell-based, Trypanosoma brucei gambiense; settings: Trypanosoma brucei, 72 h; read-out: IC50
Protocol: Parasites were cultured with or without the test article at a concentration of 3×10^4/mL in Minimal Essential Medium, according to Baltz et al., with the following modifications: 0.2 mM 2-mercaptoethanol, 1 mM Na-pyruvate, 0.5 mM hypoxanthine and 15% heat inactivated horse serum at 37°C in 5% CO2 in 96-well microtitre plates for 72 h. 10 µL of Alamar Blue was added for the final 3 h to determine viability. The assay was assessed by reading the fluorescence in each well at an excitation wavelength of 536 nm and at an emission wavelength of 588 nm. The IC50 values were calculated from the sigmoidal inhibition curves. For cytotoxicity, 4×10^4/mL L-6 rat skeletal myoblast cells were used, and incubations and assessments carried out as above.

rat liver cells = assay: Ex vivo unscheduled DNA synthesis; type: in vivo; settings: 10 mg/kg, positive control
Protocol: Groups of young male Sprague-Dawley rats received fexinidazole at doses of 500, 1000, or 2000 mg/kg orally, and the livers were sampled either 2–4 h or 12–14 h after administration. Hepatocyte suspensions were prepared and incubated in the presence of […] thymidine. Slides of fixed hepatocytes were coated in photographic emulsion and stored for 14 days at 4°C in the dark. The silver grains above the nuclei or cytoplasm (background) were counted, providing a measure of DNA uptake during DNA repair. The difference between these two counts indicated the extent of DNA repair (nuclear net grain count).

[3] = One-electron reduction potential by pulse radiolysis; type: physicochemical
Protocol: One-electron reduction potentials were determined by pulse radiolysis following an established procedure.

[4] = Trypanosoma brucei, 72 h; read-out: IC50

Compound | IC50 (L-6 rat myoblast cells) | IC50 [2] | IC50 [1, 4] | also measured
CC1CS(=O)(=O)CCN1/N=C/c1ccc([N+](=O)[O-])o1 (centres unmarked) [Nifurtimox] | 25 µg/mL and 87 µM | 0.31 µg/mL and 1.08 µM |  | AUC(0-t) (in vivo): 45700 ± 5880 ng·h/mL; Cmax (in vivo): 9250 ± 765 ng/mL; Tmax (in vivo): 1.5 ± 1.32 h; half-life (in vivo): 3.12 ± 1.45 h; IC50 ([1]; Trypanosoma brucei, 72 h, read-out: IC50): 0.4 µg/mL and 1.44 µM
N=C(N)c1ccc(OCCCCCOc2ccc(C(=N)N)cc2)cc1 [Pentamidine] | 3 µg/mL and 9 µM | 0.002 µg/mL and 10 nM | 0.003 µg/mL and 9 nM | 
Cc1ccc(C(=O)Nc2ccc(S(=O)(=O)O)c3cc(S(=O)(=O)O)cc(S(=O)(=O)O)c23)cc1NC(=O)c1cccc(NC(=O)Nc2cccc(C(=O)Nc3cc(C(=O)Nc4ccc(S(=O)(=O)O)c5cc(S(=O)(=O)O)cc(S(=O)(=O)O)c45)ccc3C)c2)c1 [Suramin] | > 90 µg/mL and > 70 µM |  | 0.062 µg/mL and 46 nM | 
CN(C)N=O [dimethylnitrosamine, reference compound] |  |  |  | Net nuclear grain count (2–4 h) (rat liver cells): 8.9
Cc1ncc([N+](=O)[O-])n1CCO [metronidazole, reference compound] |  |  |  | single electron redox potential [3]: −516 mV
